Data from patent publication US20040194155A1, “HBV mutations associated with reduced susceptibility to adefovir” (priority 2002, published 2004).
Entries after “also recorded” stand apart in the source; their conditions may differ.

Assays:
HBV = experiment: Phase 3 clinical study GS-98-438, HBeAg negative chronic hepatitis B patients; assay type: in vivo, human
Protocol: The median serum HBV DNA levels declined by 3.5 and 3.9 log10 copies/mL from baseline to week 48 in the ADV 10 mg dose groups in HBeAg positive (Study GS-98-437) and in HBeAg negative (Study GS-98-438) chronic hepatitis B patients, respectively.
Adefovir resistance surveillance was performed in a blinded manner in HBeAg negative chronic hepatitis B patients treated for 96 weeks in a Phase 3 double-blind, randomized, placebo-controlled clinical study (GS-98-438) of adefovir dipivoxil 10 mg (ADV). The analysis included 79 patients who received ADV 10 mg daily for the first 48 weeks and were randomized to also receive ADV 10 mg during the second 48 weeks.
The reverse transcriptase (RT) domain of the HBV polymerase gene (rt1 to rt344) was sequenced for HBV DNA extracted from baseline and week 96 serum samples (or the last on-study sample) for the 79 patients treated continuously with ADV for 96 weeks if the samples had detectable serum HBV DNA (≧1000 copies/mL by Roche Amplicor™ PCR assay) at the time points tested.
Study GS-98-438 is a randomized, double-blind, placebo-controlled Phase 3 clinical study of the safety and efficacy of ADV for the treatment of patients with HBeAg negative/anti-HBe positive/HBV DNA positive chronic hepatitis B. A total of 184 patients received at least one dose of study medication during the first 48 weeks (n=61 and 123 for the placebo and ADV 10 mg groups, respectively). During the second 48 weeks, all placebo patients switched to ADV 10 mg daily while the ADV-treated patients were re-randomized to either continue ADV or receive placebo at a 2:1 ratio. Accordingly, all patients who received at least one dose of study drug during the second 48 weeks are classified into three groups: PLB-ADV (n=60), ADV-ADV (n=79), and ADV-PLB (n=40).
A virology substudy of Study GS-98-438 included all patients in the ADV 10 mg-ADV 10 mg group (n=79). The RT domain of the HBV polymerase gene from banked serum samples from these patients was genotypically analyzed at baseline, and either at week 96, or upon early termination during the second 48 weeks.
If the week 96 serum HBV DNA value was not available for a patient, the closest serum HBV DNA value prior to week 96 was used. All week 96 and the last on-drug samples are referred to as week 96 samples hereafter. Note that Roche Molecular Systems raised the lower limit of quantification of the HBV DNA PCR assay from 400 copies/mL to 1,000 copies/mL after Gilead completed the week 48 analyses for study 438.

[1] = system: Lab HBV strain, rtA181T mutant; experiment: In vitro adefovir susceptibility of HBV lab strain with introduced rtA181T; assay type: cell-based, hepatitis B virus
From the text: (§1) One patient (0454-2506) with the rtN236T mutation also developed a second conserved site mutation rtA181T at week 96. However, all week 96 isolates derived from the patient encoding both rtN236T and rtA181T were replication deficient in vitro; the reason for this is unclear. To assess the adefovir sensitivity of HBV containing both rtN236T and rtA181Tmutations, an artificial construct was obtained by modifying an existing patient-derived HBV clone. The rtA181T mutation was introduced by site-directed mutagenesis into replicating HBV clones from patient 0454-2506 that already encoded rtN236T. The resulting double mutants were replication competent and were used for adefovir susceptibility testing. […] The rtA181T mutation was also introduced into a standard HBV lab strain (genotyped, ayw) to assess the individual contribution of the rtA181T mutation.

[2] = system: wild-type HBV (patient-derived baseline clones); experiment: Whole HBV genome cell culture assay: patient-derived HBV clones transiently transfected into HepG2 cells, 7 days drug, Southern blot of intracellular replicating virus DNA; assay type: cell-based, hepatitis B virus; details: adefovir, patient-derived HBV (0454-2506), reference
[3] = system: rtN236T mutant HBV (patient-derived clones); experiment: Whole HBV genome cell culture assay (HepG2 transient transfection), rtN236T clones; assay type: cell-based, hepatitis B virus; details: for IC50 Fold Change (rtN236T/Wild-type): patient-derived HBV strain, rtN236T vs wild-type (Table 7); for susceptibility of rtN236T mutant (in words): in vitro
[4] = system: rtK241E + rtK318Q mutant HBV (patient-derived clones); experiment: Whole HBV genome cell culture assay (HepG2 transient transfection), rtK241E + rtK318Q clones; details: in vitro, patient 0370-3503
Protocol: All conserved site substitutions were evaluated for their effects on adefovir susceptibility using a novel approach to generate full-length patient-derived HBV clones. […] Full-length viral genomes were cloned into the lethal selection vector pCAP^s at a Mlu Nl site through blunt-end ligation (PCR Cloning Kit, Roche) and then subcloned into plasmid pHY106, a pBluescript KS (+)-derived plasmid containing a CMV promoter and the minimal 5′ and 3′ HBV sequence necessary (approximately 180 total bases) for viral replication after the insertion of a genome-length clinical HBV isolate. Drug susceptibility of patient-derived clones was analyzed by transient transfection into HepG2 cells.
To investigate if these conserved site mutations conferred resistance to adefovir, adefovir susceptibility of HBV isolates derived from the above five patients was evaluated using a whole HBV genome cell culture assay as described above.

[5] = system: rtN236T + rtA181T double mutant HBV; experiment: Whole HBV genome cell culture assay, rtA181T introduced by site-directed mutagenesis into rtN236T clones of patient 0454-2506; assay type: cell-based, hepatitis B virus; details: adefovir, patient-derived HBV (0454-2506)
From the text: as §1

## CC(C)(C)C(=O)OCOP(=O)(COCCn1cnc2c(N)ncnc21)OCOC(=O)C(C)(C)C [ADV, adefovir dipivoxil]
HBV; of 79 patients on ADV 10 mg for 96 weeks, Roche Amplicor PCR
  number of patients with HBV DNA < 1000 copies/mL at week 96: 58

## Nc1ncnc2c1ncn2CCOCP(=O)(O)O [Adefovir, adefovir]
[1]
  resistance conferred by rtA181T mutation (in words): did not confer resistance; also recorded: does not confer resistance
HBV; patient 0370-3503 (rtK241E + rtK318Q), week 96
  reduction in serum HBV DNA: > 5 log10
HBV; patient 0370-3503, week 96
  serum HBV DNA: 3.1 log10 copies/mL
HBV; patient 0370-3503, week 156 (February of 2003)
  serum HBV DNA: 3.6 log10 copies/mL
[2]
  IC50 Fold Change from Wild-Type: 1 fold
[3]
  IC50 Fold Change (rtN236T/Wild-type): 9.6 fold
[4]
  susceptibility of rtK241E + rtK318Q double mutant (in words): not associated with resistance; also recorded: remained fully susceptible
[5]
  IC50 Fold Change from Wild-Type: 2.5 fold

## C=C1[C@H](CO)[C@@H](O)C[C@@H]1n1cnc2c(=O)[nH]c(N)nc21 [Entecavir, entecavir]
[3]
  susceptibility of rtN236T mutant (in words): remained susceptible
  IC50 Fold Change (rtN236T/Wild-type): 0.67 fold

## Cc1cn([C@@H]2C[C@@H](O)[C@H](CO)O2)c(=O)[nH]c1=O [L-dT]
[3]
  susceptibility of rtN236T mutant (in words): remained susceptible
  IC50 Fold Change (rtN236T/Wild-type): 2.4 fold

## COc1ccc(Sc2nc(N)nc3c2ncn3CCOCP(=O)(OCC(F)(F)F)OCC(F)(F)F)cc1 [MCC-478]
[3]
  IC50 Fold Change (rtN236T/Wild-type): 8.6 fold

## C[C@H](Cn1cnc2c(N)ncnc21)OCP(=O)(O)O [Tenofovir, tenofovir]
[3]
  IC50 Fold Change (rtN236T/Wild-type): 4.2 fold
